Laboratory results as given in patent US20210378934A1, “HAIR CARE ACTIVE AGENT” (GIVAUDAN SA, priority 2018, published 2021).
≈ marks a conversion by molar mass, not a printed value. Like-named read-outs stand apart in the source and are kept apart here.

Key:
[1] = tested on: Anagen VI human hair follicles; experiment: ROS evaluation (DCFH-DA) in micro-dissected hair follicles under cumene hydroperoxide stress (Example 5); assay type: cell-based; settings: 50 μM cumene hydroperoxide, 1 hour (oxidative stimulus)
Method: After the selection, the HFs were incubated for 1 hour with the standard solution from Example 1 dissolved in William's E medium. Afterwards, the HFs were cultured for 30 min in the presence of dichlorofluoerescein diacetate (DCFH-DA), a probe that reacts with ROS to become fluorescent. […] At the end of the experimental phase, the HFs were harvested, cryo-fixed and cut at the cryo-micro-tome for consequent image acquisition and image analysis of fluorescence within the sections. A slide for each HF was processed by image acquisition and related analysis (i.e. 12 images for each treatment). […]

[2] = tested on: melanocytes and melanoblasts in Anagen VI human hair follicles; experiment: NKI/beteb melanocyte quantification in micro-dissected hair follicles under oxidative stress (Example 5); assay type: cell-based; settings: cumene hydroperoxide oxidative stress
Method: Anagen VI human hair follicles (HFs) were dissected from the scalp (Donor). The HFs used were selected after 18 hours of pre-culture. The following parameters were evaluated in the selection procedure: growth rate (>0.18 mm/18 hours), morphology (no signs of dystrophy).
Starting from day 1, after the selection at day 0, the test compounds were dissolved in the culture medium and the HFs were cultured up to planned endpoints. Twelve hair follicles were used per treatment for each read out parameter. The culture medium was renewed every other day.
Total melanocytes quantification was obtained following NKI/beteb-DAPI double immunostaining of the cryo-sections. NKI/beteb antibody (#MON7006-1 by Monosan) recognizes a (pre-) melanosomal antigen present in all melanocytes (i.e. both active melanocytes and melanoblasts).
On the immunostained sections, image analysis was performed in order to quantify the number of NKI-beteb positive cells within each hair follicle. The obtained value was normalized relative to the total number of cells of the considered area.
Image analysis was performed using ImageJ software (NIH, USA).
All quantitative data was summarized in terms of the mean score, standard deviation and standard error of the mean for each treatment.
Differences between groups were evaluated by One-way ANOVA with permutation test followed by Tukey and t-test with permutation.

[3] = tested on: co-culture of Normal Human Epidermal Keratinocytes (NHEKs) and Normal Human Melanocytes (NHMs); experiment: Melanin production in NHK/NHM co-culture: comparison (Example 7); assay type: cell-based; settings: 5 days; for effect on melanin synthesis / melanin content (in words): taxifolin glucoside 0.13 μg/mL alone, + N-acetyl tyrosine 15 μg/mL or + L-tyrosine 15 μg/mL
Source text: The aim of this study was to compare the effect of the hair care active agent of the present invention, which comprises taxifolin glucoside and N-acetyl tyrosine, with those of L-tyrosine (positive reference), of taxifolin glucoside, and of a mixture of taxifolin glucoside and L-tyrosine. The model used for this comparison was a co-culture of Normal Human Epidermal Keratinocytes (NHEKs) and Normal Human Melanocytes (NHMs).
The cell culture was realized with primary cells isolated from human skin biopsies.
Normal Human Keratinocytes (NHKs) were seeded at 60000 cells per well in 6-wells plates pre-coated with collagen I. 4 hours later, Normal Human Melanocytes (NHMs) were seeded at 60 000 cells per well in the same 6-wells plates. The cells were incubated for 48 hours in complete medium (EpiLife® supplemented with HKGS=Human Kerationcyte Growth Supplement).
After 48 hours of culture, the cells were stimulated for 5 days with the following compositions: • L-tyrosine at 450 μg/mL (Sigma) • Taxifolin glucoside at 0.13 μg/mL • Taxifolin glucoside at 0.13 μg/mL+N-acetyl tyrosine at 15 μg/mL (similar to Example 1) • Taxifolin glucoside at 0.13 μg/mL+L-tyrosine at 15 μg/mL (Sigma)
The compositions were diluted in a basal medium without supplements (EpiLife®). Every 2 days, the treatments were renewed.
After 5 days of treatment, cells were rinsed off with PBS. Then, in each well, 200 μL of a 0.5N NaOH solution was added. The cell lysates were collected in 1.5 mL microtubes with secure caps. In parallel, a standard range of melanin was prepared (1000 μg/mL). Microtubes of samples and standard range were heated for 1 hour at 80° C. in a dry bath. After the heating, 100 μL of each sample was transferred to a 96-wells plate.
Optical density was measured at 405 nm to determine the melanin content. […]
If it was not significant, the data was evaluated with statistical parametric tests (ANOVA followed by Dunnett's multiple comparisons test).
If it was significant, the data was evaluated with statistical non parametric tests (ANOVA of Kruskall-Wallis followed by a Mann-Whitney U test).

Solubility = assay type: physicochemical
melanogenesis = settings: Sang Mi An et al. Phytother. Res. 22, 1200-1207 (2008); cited from earlier work

**Q.** With cumene hydroperoxide as the molecule, how does the “increase of ROS production compared to the untreated condition” value [1] read?
**A.** The value was “+256%”.

**Q.** And the “reduction of the number of melanocytes compared to the untreated condition” value [2]?
**A.** The value was 78%.

**Q.** For `N[C@@H](Cc1ccc(O)cc1)C(=O)O` [L-tyrosine], which “melanin content / synthesis of melanin, change compared to the untreated condition” value ([3]; L-tyrosine 450 μg/mL, taxifolin glucoside 0.13 μg/mL + N-acetyl tyrosine 15 μg/mL, p<0.001) is on record?
**A.** Its value is “+35%”.

**Q.** For Taxifolin glucoside, which “effect on melanin synthesis / melanin content (in words)” value [3] is on record?
**A.** Its value is “not able to induce synthesis of melanin”.

**Q.** And the “effect on melanin synthesis / melanin content (in words)” value ([3]; listed as taxifolin glucoside)?
**A.** The value was “does not have any influence”.

**Q.** Which solubility (Solubility; water with taxifolin glucoside, aqueous with cosolvent or surfactant or cyclodextrin, suitable amounts of taxifolin glucoside, molar ratio about 1:1, read-out: solubility of taxifolin in water in the presence of taxifolin glucoside) does the source give for `O=C1c2c(O)cc(O)cc2O[C@H](c2ccc(O)c(O)c2)[C@H]1O` [taxifolin] here?
**A.** The solubility was at least 20000 µg/mL.

**Q.** And the solubility (Solubility; water, typical, read-out: solubility of taxifolin in water)?
**A.** Its solubility is about 1000 µg/mL (≈ 3.29 mM).

**Q.** And the “effect on melanogenesis (in words)” value (melanogenesis)?
**A.** Its value is “inhibit melanogenesis”.
